In patent publication US10807952B2 (Achillion Pharmaceuticals, Inc., priority 2015, dated 2020):

Molecular target: Human Factor D (Homo sapiens (Human), UniProt P00746)
Test: Human Factor D assay (Z-L-Lys-SBzl / DTNB, absorbance at 405 nm)
Type: biochemical
Conditions: Table 4; Human Factor D 80 nM, assay of Example 13
Summary of the method: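 Human serum-purified Factor D (80 nM final) was preincubated with compound for 5 min at room temperature in 50 mM Tris, 1M NaCl, pH 7.5. IC50 came from nonlinear regression of rate versus compound concentration.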

Sequence of Human Factor D (P00746 26-253): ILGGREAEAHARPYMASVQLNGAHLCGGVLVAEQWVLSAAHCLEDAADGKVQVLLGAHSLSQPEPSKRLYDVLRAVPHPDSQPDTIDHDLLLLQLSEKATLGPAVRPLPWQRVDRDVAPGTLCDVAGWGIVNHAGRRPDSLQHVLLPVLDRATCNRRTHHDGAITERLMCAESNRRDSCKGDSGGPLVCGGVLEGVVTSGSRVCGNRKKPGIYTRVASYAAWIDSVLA

| Compound | IC50 [nM] |
| --- | --- |
| NC(=O)c1nn(CC(=O)N2C[C@H](F)C[C@H]2C(=O)Nc2cccc(-c3ccc4c(c3)C(=O)NC4)c2F)c2ccccc12 [Compound 91, 1-(2-((2S,4R)-4-fluoro-2-((2-fluoro-3-(3-oxoisoindolin-5-yl)phenyl)carbamoyl)pyrrolidin-1-yl)-2-oxoethyl)-1H-indazole-3-carboxamide] | < 1000 |
| NC(=O)c1nn(CC(=O)N2C[C@H](F)C[C@H]2C(=O)Nc2cccc(-c3ccc4oc(=O)[nH]c4c3)c2F)c2ccccc12 [Compound 92, 1-(2-((2S,4R)-4-fluoro-2-((2-fluoro-3-(2-oxo-2,3-dihydrobenzo[d]oxazol-5-yl)phenyl)carbamoyl)pyrrolidin-1-yl)-2-oxoethyl)-1H-indazole-3-carboxamide] | < 1000 |
| NC(=O)c1nn(CC(=O)N2C[C@H](F)C[C@H]2C(=O)Nc2cccc(-c3ccc4c(c3)C(=O)CCC4)c2F)c2ccccc12 [Compound 93, 1-(2-((2S,4R)-4-fluoro-2-((2-fluoro-3-(8-oxo-5,6,7,8-tetrahydronaphthalen-2-yl)phenyl)carbamoyl)pyrrolidin-1-yl)-2-oxoethyl)-1H-indazole-3-carboxamide] | < 1000 |
| CC(=O)c1nn(CC(=O)N2C[C@H](F)C[C@H]2C(=O)Nc2cccc(-c3cc(C(=O)NC#N)ccc3Cl)c2F)c2ccccc12 [Compound 95, (2S,4R)-1-(2-(3-acetyl-1H-indazol-1-yl)acetyl)-N-(2′-chloro-5′-(cyanocarbamoyl)-2-fluoro-[1,1′-biphenyl]-3-yl)-4-fluoropyrrolidine-2-carboxamide] | < 1000 |
| CC(=O)c1nn(CC(=O)N2C[C@H](F)C[C@H]2C(=O)Nc2cccc(-c3ccc4c(c3)NC(=O)NC4)c2F)c2ccccc12 [Compound 96, (2S,4R)-1-(2-(3-acetyl-1H-indazol-1-yl)acetyl)-4-fluoro-N-(2-fluoro-3-(2-oxo-1,2,3,4-tetrahydroquinazolin-7-yl)phenyl)pyrrolidine-2-carboxamide] | < 1000 |
| CC(=O)c1nn(CC(=O)N2C[C@H](F)C[C@H]2C(=O)Nc2cccc(-c3nc(Cl)c4nc[nH]c4n3)c2F)c2ccccc12 [Compound 99, (2S,4R)-1-(2-(3-acetyl-1H-indazol-1-yl)acetyl)-N-(3-(6-chloro-9H-purin-2-yl)-2-fluorophenyl)-4-fluoropyrrolidine-2-carboxamide] | < 1000 |
| CC(=O)c1nn(CC(=O)N2C[C@H](F)C[C@H]2C(=O)Nc2cccc(-c3ccc4sc(N)nc4c3)c2F)c2ccccc12 [Compound 100, (2S,4R)-1-(2-(3-acetyl-1H-indazol-1-yl)acetyl)-N-(3-(2-aminobenzo[d]thiazol-5-yl)-2-fluorophenyl)-4-fluoropyrrolidine-2-carboxamide] | < 1000 |
| CC(=O)c1nn(CC(=O)N2C[C@H](F)C[C@H]2C(=O)Nc2cccc(-c3ccc4nc(N)sc4c3)c2F)c2ccccc12 [Compound 101, (2S,4R)-1-(2-(3-acetyl-1H-indazol-1-yl)acetyl)-N-(3-(2-aminobenzo[d]thiazol-6-yl)-2-fluorophenyl)-4-fluoropyrrolidine-2-carboxamide] | < 1000 |
| CC(=O)c1nn(CC(=O)N2C[C@H](F)C[C@H]2C(=O)Nc2cccc(-c3ccc4[nH]c(=O)[nH]c(=O)c4c3)c2F)c2ccccc12 [Compound 102, (2S,4R)-1-(2-(3-acetyl-1H-indazol-1-yl)acetyl)-N-(3-(2,4-dioxo-1,2,3,4-tetrahydroquinazolin-6-yl)-2-fluorophenyl)-4-fluoropyrrolidine-2-carboxamide] | < 1000 |
| CC(=O)c1nn(CC(=O)N2C[C@H](F)C[C@H]2C(=O)Nc2cccc(-c3ccc4sc(O)nc4c3)c2F)c2ccccc12 [Compound 103, (2S,4R)-1-(2-(3-acetyl-1H-indazol-1-yl)acetyl)-4-fluoro-N-(2-fluoro-3-(2-hydroxybenzo[d]thiazol-5-yl)phenyl)pyrrolidine-2-carboxamide] | < 1000 |
